Values after ≈ are worked out from the molar mass of the structure shown. Read-outs that look alike come from different tables or passages of the source. Where a SMILES comes first, the peptide text is derived from it.
Assays:
Assay type in all cases: cell-based
[1] = tested on: six bacteria (S. aureus, E. coli, P. aeruginosa; ATCC and clinical isolate); conditions: for Antibacterial (MIC <64ug/mL): synthesized mature peptide
Procedure: (§1) Antimicrobial testing of 78 cathelicidin MPs was performed in two phases as outlined in Figure 1 . In phase I, 40 peptides (27 extant and 13 ancestral) were selected for testing based on rank (outlined above) and similarity to published marsupial cathelicidins with known antimicrobial activity ([33], [41]–[43]). These peptides were tested against nine bacteria (Staphylococcus aureus ATCC 29213 and clinical isolate, Escherichia coli ATCC 25922 and clinical isolate, Pseudomonas aeruginosa ATCC 27853 and clinical isolate, Streptococcus agalactiae ATCC 12386 and clinical isolate, Streptococcus pneumoniae ATCC 49619) and three fungi (Candida krusei ATCC 6258, Candida parapsilosis ATCC 22019, and Candida albicans clinical isolate). Details regarding these strains are available in Supplementary Table 4 . The antimicrobial activity of cathelicidins was determined as the minimum inhibitory concentration (MIC), which was the lowest concentration of cathelicidin that prevented visible bacterial or fungal growth, relative to the negative control. […] Minimum bactericidal concentration (MBC) and/or minimum fungicidal concentration (MFC) was conducted to determine microbicidal versus static action. Activity against S. aureus ATCC, E. coli ATCC, and Pseudomonas aeruginosa ATCC 27853 was examined in the presence of divalent cations to determine the impact of inhibitors.
In phase II, the remaining 38 peptides (37 extant and one ancestral) were tested against six bacteria (S. aureus ATCC and clinical isolate, E. coli ATCC and clinical isolate, and P. aeruginosa ATCC and clinical isolate). […] No further testing on phase II peptides was performed. Detailed methods for all assays are provided in subsequent sections.
(§2) Antimicrobial activity was determined using a broth microdilution susceptibility assay in 96 well polypropylene plates according to Clinical Laboratory Standards Institute guidelines M07-A and M26A as described previously ([33], [42], [43]). The bacterial and fungal isolates from humans and animals used in this study are outlined in Supplementary Table 4 . Only yeasts were included in the panel of fungi as they have been used in the susceptibility testing of eutherian ([3], [81]–[83]) and other marsupial cathelicidins previously ([33], [42], [43]). Cathelicidin mature peptides were solubilized in DMSO and serially diluted in duplicate from 128-0.25μg/mL in a final volume of 100µL. For bacteria, cathelicidins were diluted in Mueller Hinton Broth (MHB) with or without 10% lysed horse blood, and with (MH II B) or without (MHB) calcium and magnesium cations. For fungi, cathelicidins were diluted in Roswell Park Memorial Institute medium (RPMI)-1640 MOPS. Ampicillin or tetracycline were included as a positive control for Gram-positive and -negative bacteria respectively, while amphotericin B was used for fungi. A media-only negative control and growth control (no cathelicidin) were also included on each plate. Bacteria were sub-cultured on Muller Hinton agar (MHA) or sheep blood agar (BA), and fungi on Sabouraud dextrose agar (SAB), 20–24 hours prior to the test. Colonies were suspended in saline, the concentration adjusted to a 0.5 McFarland standard, and then diluted in media to a concentration of 1.0 x 10^6 cells/mL. Then, 100μL was added to each well of the cathelicidin dilution plate, giving a final inoculum density of 5 x 10^5 CFU/mL and cathelicidin concentration of 64-0.125μg/mL. Colony counts were performed on MHA/BA/SAB to confirm inoculum density. All plates were incubated at 35°C for 20–24 hours, depending on the strain.
(§3) Colonies were counted and compared to the colony count of the starting inoculum.

[2] = tested on: three fungi (Candida krusei, Candida parapsilosis, Candida albicans); assay: Antifungal screening, summary over the panel of fungi (broth microdilution)
Procedure: as §1, §2, §3

[3] = tested on: Staphylococcus aureus clinical isolate – animal, methicillin-resistant (MRSA); conditions: clinical isolate – animal, methicillin-resistant
In short: (§4)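 Broth microdilution per CLSI M07-A/M26A; peptides in DMSO, final 64-0.125 μg/mL, inoculum 5 x 10^5 CFU/mL. Bacteria in MHB ± 10% lysed horse blood ± Ca/Mg cations, yeasts in RPMI-1640 MOPS; 35°C for 20–24 h. MIC is lowest concentration without visible growth.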

[4] = tested on: Staphylococcus aureus clinical isolate – animal, penicillin-resistant (PRSA); conditions: clinical isolate – animal, penicillin-resistant (PRSA)
In short: as §4

[5] = tested on: Candida parapsilosis ATCC 22019; assay: microbe, parasite or virus in culture; conditions: ATCC 22019
In short: as §4

[6] = tested on: Streptococcus agalactiae ATCC 12386; assay: microbe, parasite or virus in culture; conditions: ATCC 12386; read-out: MIC S. agalactiae ATCC
In short: as §4

Candida krusei ATCC 6258 = assay: microbe, parasite or virus in culture; conditions: ATCC 6258
In short: as §4

[7] = tested on: Streptococcus pneumoniae ATCC 49619; assay: microbe, parasite or virus in culture; conditions: ATCC 49619; read-out: MIC S. pneumoniae ATCC
In short: as §4

[8] = tested on: Streptococcus agalactiae Clinical isolate - animal; assay: microbe, parasite or virus in culture; conditions: clinical isolate - animal
In short: as §4

[9] = tested on: Candida albicans Clinical isolate - human; assay: microbe, parasite or virus in culture; conditions: Clinical isolate - human
In short: as §4

[10] = tested on: Staphylococcus aureus clinical isolate - animal; assay: microbe, parasite or virus in culture; conditions: clinical isolate - animal
In short: (§5)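 Broth microdilution following CLSI M07-A/M26A, using peptides at 64–0.125 μg/mL final in MHB, with or without 10% lysed horse blood and with or without Ca/Mg cations (MH II B). Inoculum 5 x 10^5 CFU/mL, incubated 20–24 h at 35 °C; MIC is lowest concentration preventing visible growth, MBC by colony counts versus starting inoculum.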

[11] = tested on: Pseudomonas aeruginosa clinical isolate - animal; assay: microbe, parasite or virus in culture; conditions: clinical isolate - animal
In short: as §5

[12] = tested on: Pseudomonas aeruginosa ATCC 27853; assay: microbe, parasite or virus in culture; conditions: ATCC 27853; read-out: MIC P. aeruginosa ATCC
In short: as §5

[13] = tested on: Escherichia coli ATCC 25922; assay: microbe, parasite or virus in culture; conditions: ATCC 25922
In short: as §5

[14] = tested on: Staphylococcus aureus ATCC 29213; assay: microbe, parasite or virus in culture; conditions: ATCC 29213
In short: as §5

[15] = tested on: Escherichia coli clinical isolate - animal; assay: microbe, parasite or virus in culture; conditions: clinical isolate - animal
In short: as §5

[16] = antimicrobial screening Phase I, Y/N summary over bacteria tested, broth microdilution
[17] = synthesized mature peptide, antimicrobial screening Phase I, Y/N summary over fungi tested, broth microdilution
[18] = broth microdilution screening, phase I or II, Y/N summary over the bacteria tested
[19] = broth microdilution screening, phase I, Y/N summary over the fungi tested, synthesized mature peptide

## PGKRRGKLIKKGGKGVKRLLPKNGIIILPPG [MAP5, marsupial ancestral peptide, predicted by ANCESCON and GASP, synthesized]
[1]; [16]
  Antibacterial (MIC <64ug/mL): N (Antibacterial (MIC <64ug/mL))
[2]; [17]
  Antifungal (MIC <64ug/mL): N (Antifungal (MIC <64ug/mL))

## SRGLRKKLKKLGKSIKKRLKNIKIGYSIPFPG [PspeCath1p]
[2]; Y/N summary over the fungi screened, broth microdilution, NT = not tested
  Antifungal (MIC <64ug/mL): Y (Antifungal (MIC <64ug/mL))

## KRGLWESLKRKATKLGDDIRNTLRNFKIKVPVPRQWPIRV [MaruCath4p]
[1]; [18]
  Antibacterial (MIC <64ug/mL): Y (Antibacterial (MIC <64ug/mL))
[2]; [19]
  Antifungal (MIC <64ug/mL): N (Antifungal (MIC <64ug/mL))

## RSKRSSSLEEIDIDSLPPKVKEIYYRGIDDAIGGILRNF [TrvuCath4]
[1]; [18]
  Antibacterial (MIC <64ug/mL): N (Antibacterial (MIC <64ug/mL))
[2]; [19]
  Antifungal (MIC <64ug/mL): N (Antifungal (MIC <64ug/mL))

## PELLRSRRSPLPRRKKGSKKNSYKTGGYSVIALGKSNVHKAPYMEAL [TrvuCath1]
[1]; [18]
  Antibacterial (MIC <64ug/mL): N (Antibacterial (MIC <64ug/mL))
[2]; [19]
  Antifungal (MIC <64ug/mL): N (Antifungal (MIC <64ug/mL))

## CC[C@H](C)[C@H](NC(=O)[C@H](CCCNC(=N)N)NC(=O)[C@H](CC(=O)O)NC(=O)[C@H](Cc1c[nH]c2ccccc12)NC(=O)[C@@H](NC(=O)[C@H](CCCNC(=N)N)NC(=O)[C@H](CCCNC(=N)N)NC(=O)[C@@H](NC(=O)[C@H](CC(C)C)NC(=O)[C@H](CCCNC(=N)N)NC(=O)CNC(=O)[C@H](CC(C)C)NC(=O)[C@H](CCCNC(=N)N)NC(=O)CNC(=O)[C@H](CCCNC(=N)N)NC(=O)[C@@H](N)CCCCN)[C@@H](C)CC)[C@@H](C)CC)C(=O)N[C@@H](CCCNC(=N)N)C(=O)NCC(=O)NCC(=O)O [MyfaCath7] (H-KRGRLGRLIRRIWDRIRGG-OH)
[3]
  MBC MRSA: 3.4 µM (≈ 7.94 µg/mL)
  MIC MRSA: 3.4 µM (≈ 7.94 µg/mL)
[4]
  MBC PRSA: 1.7 µM (≈ 3.97 µg/mL)
  MIC PRSA: 1.7 µM (≈ 3.97 µg/mL)
[5]
  MFC C. parapsilosis ATCC: 13.7 µM (≈ 32 µg/mL)
  MIC C. parapsilosis ATCC: 13.7 µM (≈ 32 µg/mL)
[6]
  MIC: >27.4 µM
Candida krusei ATCC 6258
  MFC C. krusei ATCC: 6.8 µM (≈ 15.9 µg/mL)
  MIC C. krusei ATCC: 6.8 µM (≈ 15.9 µg/mL)
[7]
  MIC: >27.4 µM
[8]
  MBC S. agalactiae: 13.7 µM (≈ 32 µg/mL)
  MIC S. agalactiae: 13.7 µM (≈ 32 µg/mL)
[9]
  MFC C. albicans: 27.4 µM (≈ 64 µg/mL)
  MIC C. albicans: 27.4 µM (≈ 64 µg/mL)
[1]
  MIC against at least one strain: 4 µg/mL (≈ 1.71 µM)
[10]
  MBC S. aureus: 3.4 (3.4)^3.4 µM
  MIC S. aureus: 3.4 (3.4)^3.4 µM
  MIC in the presence of cations S. aureus: 3.4 (3.4)^3.4 µM
[11]
  MBC P. aeruginosa: > 27.4 µM
[11]; read-out: MIC P. aeruginosa
  MIC: 13.7 µM (≈ 32 µg/mL)
[11]; read-out: MIC in the presence of cations P. aeruginosa
  MIC: 27.4 µM
[12]
  MIC: >27.4 µM
[13]
  MBC E. coli ATCC: 1.7 µM (≈ 3.97 µg/mL)
[13]; read-out: MIC E. coli ATCC
  MIC: 1.7 µM (≈ 3.97 µg/mL)
[13]; read-out: MIC in the presence of cations E. coli ATCC
  MIC: 3.4 µM
[14]
  MBC S. aureus ATCC: 3.4 (3.4)^3.4 µM
  MIC S. aureus ATCC: 3.4 (3.4)^3.4 µM
  MIC in the presence of cations S. aureus ATCC: 3.4 (3.4)^3.4 µM
[15]
  MBC E. coli: 1.7 (1.7)^1.7 µM
  MIC E. coli: 1.7 (1.7)^1.7 µM
  MIC in the presence of cations E. coli: 1.7 (1.7)^1.7 µM

## PKRKKGSKKRRFRPGGYTLIALGKPRVQKAPYMEAL [MAP3, marsupial ancestral peptide, likely linear, rich in arginine (32.2%) and proline (25.8%)]
[1]; [16]
  Antibacterial (MIC <64ug/mL): N (Antibacterial (MIC <64ug/mL))
[2]; [17]
  Antifungal (MIC <64ug/mL): N (Antifungal (MIC <64ug/mL))

## KRFGFRWFIRTLLRFRGEKVKTRFIFAIEKLIDT [MAP12, marsupial ancestral peptide, predicted by ANCESCON and GASP, synthesized]
[1]; [16]
  Antibacterial (MIC <64ug/mL): N (Antibacterial (MIC <64ug/mL))
[2]; [17]
  Antifungal (MIC <64ug/mL): N (Antifungal (MIC <64ug/mL))

## RQIYDQAKYDILTGILRNF [BepeCath8]
[1]; [16]
  Antibacterial (MIC <64ug/mL): N (Antibacterial (MIC <64ug/mL))
[2]; [17]
  Antifungal (MIC <64ug/mL): N (Antifungal (MIC <64ug/mL))

## KVKRGLWEDLKRKATKFGDDIRNTLRNVKIKFPVPHLG [MagiCath9]
[1]; [18]
  Antibacterial (MIC <64ug/mL): N (Antibacterial (MIC <64ug/mL))
[2]; [19]
  Antifungal (MIC <64ug/mL): N (Antifungal (MIC <64ug/mL))

## RQRRLPFLGDPRRFPRPRGRPQPDPRQGRPN [MAP4, marsupial ancestral peptide, predicted by ANCESCON and GASP, synthesized]
[1]; [16]
  Antibacterial (MIC <64ug/mL): N (Antibacterial (MIC <64ug/mL))
[2]; [17]
  Antifungal (MIC <64ug/mL): N (Antifungal (MIC <64ug/mL))

Source: paper PMC12006171, “Marsupial cathelicidins: characterization, antimicrobial activity and evolution in this unique mammalian lineage” (Frontiers in Immunology, 2025)
